From the supplement of paper PMC10307832

Assays:
Test in all cases: relative viability (nuclei count vs DMSO), 5 days (fraction); higher = more cells survive
[1] = compound: Cc1ccc(-n2nc(C(C)(C)C)cc2NC(=O)Nc2ccc(OCCN3CCOCC3)c3ccccc23)cc1 [Doramapimod] + C[C@]1(O)C[C@@H](c2nc(-c3ccc4ccc(-c5ccccc5)nc4c3)c3c(N)nccn32)C1 [Linsitinib] (partner 1 µM)
Summary of the method: (§1)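 Relative viability divides the nuclei count in treated wells by that in vehicle wells. Lung cancer cell lines were seeded in 1536-well plates, dosed by pin tool the next day, and fixed and stained after 5 days in one step with final 0.05% Triton X-100, 1% formaldehyde and 1 ug/ml Hoechst. Dosing was a single drug or a fixed anchor-drug dose plus five library-drug doses (not always all listed) in √10 steps, and values are medians of duplicate plates imaged at 4×.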

[2] = compound: Cc1ccc(-n2nc(C(C)(C)C)cc2NC(=O)Nc2ccc(OCCN3CCOCC3)c3ccccc23)cc1 [Doramapimod] + CC(=O)c1c(C)c2cnc(Nc3ccc(N4CCNCC4)cn3)nc2n(C2CCCC2)c1=O [Palbociclib] (partner 0.5 µM)
Summary of the method: as §1

[3] = compound: Cn1c(Nc2ccc(C(F)(F)F)cc2)nc2cc(Oc3ccnc(-c4ncc(C(F)(F)F)[nH]4)c3)ccc21 [RAF265] + CC(=O)c1c(C)c2cnc(Nc3ccc(N4CCNCC4)cn3)nc2n(C2CCCC2)c1=O [Palbociclib] (partner 0.5 µM)
Summary of the method: as §1

[4] = compound: C1=CC=C2C(=C1)C=CC(=C2SSC3=C(C=CC4=CC=CC=C43)O)O [IPA-3] + NC(=O)Nc1cc(-c2cccc(F)c2)sc1C(=O)N[C@H]1CCCNC1 [AZD7762] (partner 0.2 µM)
Summary of the method: as §1

| Cell Line | relative viability ([1]; first compound 0.02 µM) | relative viability ([1]; first compound 0.06325 µM) | relative viability ([1]; first compound 0.2 µM) | relative viability ([1]; first compound 0.6325 µM) | relative viability ([1]; first compound 2 µM) | relative viability ([2]; first compound 0.02 µM) | relative viability ([2]; first compound 0.06325 µM) | relative viability ([2]; first compound 0.2 µM) | relative viability ([2]; first compound 0.6325 µM) | relative viability ([2]; first compound 2 µM) | relative viability ([3]; first compound 0.01 µM) | relative viability ([3]; first compound 0.03162 µM) | relative viability ([3]; first compound 0.1 µM) | relative viability ([3]; first compound 0.3162 µM) | relative viability ([3]; first compound 1 µM) | relative viability ([4]; first compound 0.2 µM) | relative viability ([4]; first compound 0.6325 µM) | relative viability ([4]; first compound 2 µM) | relative viability ([4]; first compound 6.325 µM) | relative viability ([4]; first compound 20 µM) |
| --- | --- | --- | --- | --- | --- | --- | --- | --- | --- | --- | --- | --- | --- | --- | --- | --- | --- | --- | --- | --- |
| A549 | 0.551 | 0.532 | 0.567 | 0.794 | 0.523 | – | – | – | – | – | – | – | – | – | – | – | – | – | – | – |
| COR-L23 | 0.962 | 0.917 | 0.827 | 0.933 | 0.931 | 0.29 | 0.317 | 0.298 | 0.338 | 0.283 | 0.295 | 0.233 | 0.235 | 0.184 | 0.148 | – | – | – | – | – |
| COR-L 105 | 0.968 | 0.94 | 0.853 | 1.01 | 0.735 | 0.398 | 0.421 | 0.404 | 0.449 | 0.351 | 0.425 | 0.36 | 0.385 | 0.371 | 0.358 | – | – | – | – | – |
| Calu-6 | 1.02 | 0.978 | 0.942 | 1.04 | 0.966 | – | – | – | – | – | – | – | – | – | – | – | – | – | – | – |
| ChaGo-K-1 | – | – | – | – | – | 0.928 | 0.906 | 0.918 | 0.942 | 0.823 | 0.935 | 0.951 | 0.89 | 0.844 | 0.607 | 0.986 | 0.908 | 0.859 | 0.952 | 0.946 |
| EBC-1 | 0.924 | 0.811 | 0.826 | 0.937 | 0.817 | – | – | – | – | – | – | – | – | – | – | – | – | – | – | – |
| IA-LM | 0.498 | 0.549 | 0.701 | 0.587 | 0.731 | – | – | – | – | – | – | – | – | – | – | – | – | – | – | – |
| NCI-H520 | 0.937 | 1.11 | 0.838 | 0.963 | 0.897 | 0.214 | 0.222 | 0.21 | 0.213 | 0.214 | 0.264 | 0.218 | 0.239 | 0.191 | 0.155 | – | – | – | – | – |
| NCI-H522 | – | – | – | – | – | 1.02 | 1.04 | 1.03 | 0.954 | 0.817 | 1.01 | 1.03 | 1.26 | 0.99 | 0.863 | 0.974 | 0.809 | 0.759 | 1.02 | 0.91 |
| NCI-H596 | 0.99 | 1.03 | 1.02 | 1.05 | 1 | – | – | – | – | – | – | – | – | – | – | 1.1 | 1.07 | 1.11 | 1.21 | 1.3 |
| NCI-H661 | 0.634 | 0.568 | 0.555 | 0.741 | 0.599 | 0.447 | 0.407 | 0.404 | 0.427 | 0.39 | 0.457 | 0.408 | 0.337 | 0.326 | 0.344 | – | – | – | – | – |
| NCI-H1299 | 1 | 1.04 | 1.01 | 1.06 | 0.985 | – | – | – | – | – | – | – | – | – | – | – | – | – | – | – |
| NCI-H1563 | 1.17 | 1.23 | 1.25 | 1.25 | 1.2 | – | – | – | – | – | – | – | – | – | – | – | – | – | – | – |
| NCI-H1648 | – | – | – | – | – | 0.262 | 0.293 | 0.248 | 0.249 | 0.234 | 0.287 | 0.283 | 0.266 | 0.26 | 0.242 | 0.673 | 0.863 | 0.751 | 0.621 | 0.825 |
| NCI-H1650 | – | – | – | – | – | 0.411 | 0.363 | 0.428 | 0.425 | 0.35 | 0.385 | 0.319 | 0.418 | 0.278 | 0.277 | – | – | – | – | – |
| NCI-H1703 | 0.637 | 0.601 | 0.68 | 0.908 | 0.532 | – | – | – | – | – | – | – | – | – | – | 0.119 | 0.121 | 0.126 | 0.145 | 0.133 |
| NCI-H2009 | 1.21 | 1.23 | 1.3 | 1.23 | 1.16 | 0.26 | 0.262 | 0.3 | 0.314 | 0.247 | 0.264 | 0.224 | 0.162 | 0.17 | 0.144 | – | – | – | – | – |
| NCI-H2023 | 0.626 | 0.718 | 0.533 | 0.738 | 0.575 | 0.299 | 0.367 | 0.296 | 0.392 | 0.323 | 0.411 | 0.34 | 0.37 | 0.291 | 0.268 | – | – | – | – | – |
| NCI-H2170 | – | – | – | – | – | 0.381 | 0.421 | 0.413 | 0.387 | 0.377 | 0.398 | 0.295 | 0.354 | 0.26 | 0.295 | 1.1 | 0.826 | 0.78 | 0.795 | 0.919 |
| NCI-H2228 | 0.762 | 0.449 | 0.632 | 0.65 | 0.464 | 0.797 | 1.04 | 0.746 | 0.686 | 0.66 | 0.721 | 0.73 | 0.818 | 0.333 | 0.284 | – | – | – | – | – |
| NCI-H2342 | – | – | – | – | – | 0.523 | 0.585 | 0.632 | 0.524 | 0.535 | 0.582 | 0.547 | 0.558 | 0.468 | 0.474 | 0.429 | 0.563 | 0.502 | 0.681 | 0.542 |
| SK-LU-1 | 1.07 | 1.02 | 1.2 | 1.16 | 0.941 | 0.4 | 0.4 | 0.396 | 0.401 | 0.337 | 0.399 | 0.342 | 0.33 | 0.318 | 0.251 | – | – | – | – | – |
| SK-MES-1 | 1.08 | 1 | 0.996 | 1.09 | 0.909 | 0.316 | 0.288 | 0.341 | 0.316 | 0.269 | 0.291 | 0.233 | 0.241 | 0.252 | 0.204 | – | – | – | – | – |
| SW 1573 | 0.722 | 0.74 | 0.8 | 0.739 | 0.736 | 0.449 | 0.358 | 0.298 | 0.354 | 0.313 | 0.419 | 0.328 | 0.312 | 0.245 | 0.215 | – | – | – | – | – |
